In patent US20230414735A1, “NEOANTIGENS AND METHODS OF THEIR USE” (priority 2016, published 2023):
Where two headings read alike, the source gives them in different places. Where no end group is shown, it is not given here.

Experiments:
HLA class I molecule = assay: HLA class I peptide binding affinity assay (inhibition of 125I-radiolabeled probe peptide binding to purified HLA); design: species or system human; conditions: read-out: Observed Affinity (IC50, (nM))
Protocol: Epstein-Barr virus (EBV)-transformed homozygous cell lines, fibroblasts, CIR, or 721.22 transfectants are used as sources of HLA class I molecules. […] HLA molecules are purified from lysates by affinity chromatography. The lysates are passed over a column of Sepharose CL-4B beads coupled to an appropriate antibody. […] A 1/25 volume of 2.0 M Tris, pH 6.8, is added to the eluate to reduce the pH to […]. Eluates are then concentrated by centrifugation in Centriprep 30 concentrators (Amicon, Beverly, MA). Protein content is evaluated by a BCA protein assay (Pierce Chemical Co., Rockford, IL) and confirmed by SDS-PAGE.
Following incubation, MHC-peptide complexes are separated from free peptide by gel filtration on 7.8 mm×15 cm TSK200 columns (TosoHaas 16215, Montgomeryville, PA). Because the large size of the radiolabeled peptide used for the DRB1*1501 (DR2w2(31) assay makes separation of bound from unbound peaks more difficult under these conditions, all DRB1*1501 (DR2w2(31) assays were performed using a 7.8 mm×30 cm TSK2000 column eluted at 0.6 mLs/min. The eluate from the TSK columns is passed through a Beckman 170 radioisotope detector, and radioactivity is plotted and integrated using a Hewlett-Packard 3396A integrator, and the fraction of peptide bound is determined.
Radiolabeled peptides are iodinated using the chloramine-T method. […] All subsequent inhibition and direct binding assays are performed using these HLA concentrations.
Since under these conditions [label]<[HLA] and IC50≥[HLA], the measured IC50 values are reasonable approximations of the true KD values. […] For database purposes, and inter-experiment comparisons, relative binding values are compiled. These values can subsequently be converted back into IC50 nM values by dividing the IC50 nM of the positive controls for inhibition by the relative binding of the peptide of interest.
HLA binding assays were used to evaluate either the affinity of interaction of a given epitope with a selected HLA molecule or the stability.
The measurements are plotted against the predicted affinity in FIG. 1.

HLA Class I molecules = assay: HLA class I binding stability assay (pMHC-I complex dissociation, 125I-labeled β2m, scintillation counts); design: species or system human
[1] = allele A02.01, pMHC-I dissociation at 37° C.

Compound	IC50 (HLA class I molecule; allele A02.01)	Stability (T1/2 (h)) (HLA Class I molecules; allele A02.01, 37° C.)	Stability (T1/2 (h)) (HLA Class I molecules; [1])	other results
CC(C)C[C@H](NC(=O)CN)C(=O)N[C@H](C(=O)N[C@@H](CC(=O)O)C(=O)N[C@@H](CCC(=O)O)C(=O)N[C@@H](CCC(N)=O)C(=O)N[C@@H](CCC(N)=O)C(=O)N[C@@H](CCC(=O)O)C(=O)N[C@H](C(=O)O)C(C)C)C(C)C	44 nM	7.4 h		
VMAYVMAGV	2 nM	16.5 h		
CC(C)C[C@H](NC(=O)[C@@H](NC(=O)[C@H](CC(=O)O)NC(=O)[C@H](CC(C)C)NC(=O)[C@@H](NC(=O)[C@@H](N)Cc1ccc(O)cc1)[C@@H](C)O)C(C)C)C(=O)N[C@@H](CCC(=O)O)C(=O)N[C@@H](CCCNC(=N)N)C(=O)N[C@@H](CS)C(=O)O	1760 nM	6.6 h		
IMQLMPFGC	1610 nM		0.4 h	
VMAGLGSPYV	102 nM	2.9 h		
ALSASNSCFI	226 nM	0.8 h		
GLLAFWDSQV	10 nM	14.2 h		
CSCC[C@H](NC(=O)[C@H](CCC(=O)O)NC(=O)[C@H](CCCNC(=N)N)NC(=O)[C@H](CC(C)C)NC(=O)[C@H](Cc1ccc(O)cc1)NC(=O)[C@H](CC(N)=O)NC(=O)[C@H](CC(C)C)NC(=O)[C@H](CC(C)C)NC(=O)[C@@H](N)CO)C(=O)O			3 h	
CSCC[C@H](NC(=O)[C@@H](NC(=O)[C@H](Cc1ccc(O)cc1)NC(=O)[C@H](C)NC(=O)[C@H](CCSC)NC(=O)[C@@H](NC(=O)[C@@H](N)Cc1ccc(O)cc1)C(C)C)C(C)C)C(=O)N[C@@H](C)C(=O)NCC(=O)N[C@H](C(=O)O)C(C)C		20.9 h		
CC(C)C[C@H](NC(=O)[C@@H](N)CCCNC(=N)N)C(=O)N[C@@H](CO)C(=O)N[C@@H](CO)C(=O)N[C@@H](CS)C(=O)N[C@H](C(=O)N1CCC[C@H]1C(=O)N[C@H](C(=O)N[C@@H](C)C(=O)O)C(C)C)C(C)C		18.7 h		
CC[C@H](C)[C@H](NC(=O)[C@H](CO)NC(=O)[C@H](Cc1c[nH]c2ccccc12)NC(=O)[C@H](Cc1c[nH]cn1)NC(=O)[C@H](C)NC(=O)[C@@H]1CCCN1C(=O)[C@H](CCSC)NC(=O)[C@H](CC(C)C)NC(=O)[C@@H](N)CO)C(=O)O		5 h		
CC[C@H](C)[C@H](NC(=O)[C@H](CO)NC(=O)[C@H](Cc1c[nH]c2ccccc12)NC(=O)[C@H](Cc1c[nH]cn1)NC(=O)[C@H](C)NC(=O)[C@@H]1CCCN1C(=O)[C@H](CCSC)NC(=O)[C@H](CC(C)C)NC(=O)[C@H](CO)NC(=O)[C@@H](N)CC(C)C)C(=O)O		0.4 h		
KVLQMDFLV			6.4 h	
C[C@H](NC(=O)[C@H](CO)NC(=O)[C@H](C)NC(=O)[C@@H]1CCCN1C(=O)[C@H](C)NC(=O)[C@@H]1CCCN1C(=O)[C@H](CCCNC(=N)N)NC(=O)[C@@H]1CCCN1C(=O)[C@@H](N)Cc1c[nH]cn1)C(=O)O				Stability (T1/2 (h)) (HLA Class I molecules; allele B07.02, 37° C.): 4.9 h
CC(C)C[C@H](N)C(=O)N1CCC[C@H]1C(=O)N[C@@H](CCCNC(=N)N)C(=O)N[C@@H](CCCCN)C(=O)N1CCC[C@H]1C(=O)N[C@H](C(=O)N[C@@H](CCCNC(=N)N)C(=O)N[C@@H](C)C(=O)N[C@@H](C)C(=O)O)[C@@H](C)O				Stability (T1/2 (h)) (HLA Class I molecules; allele B07.02, 37° C.): 5.5 h
CC(C)C[C@H](N)C(=O)N[C@H](C(=O)N[C@H](C(=O)N[C@H](C(=O)NCC(=O)N[C@@H](C)C(=O)N[C@H](C(=O)NCC(=O)N[C@H](C(=O)O)C(C)C)C(C)C)C(C)C)C(C)C)C(C)C		0.6 h		
CC[C@H](C)[C@H](NC(=O)[C@@H](NC(=O)[C@H](CC(C)C)NC(=O)[C@@H](NC(=O)[C@@H]1CCCN1C(=O)[C@H](CCCNC(=N)N)NC(=O)[C@H](CCCNC(=N)N)NC(=O)[C@H](CC(N)=O)NC(=O)[C@H](CCSC)NC(=O)[C@@H](N)CO)[C@@H](C)CC)[C@@H](C)O)C(=O)O		0.3 h		
CSCC[C@H](NC(=O)[C@H](CC(C)C)NC(=O)[C@H](CCC(N)=O)NC(=O)[C@@H](N)CCSC)C(=O)N1CCC[C@H]1C(=O)N[C@@H](Cc1ccccc1)C(=O)NCC(=O)N[C@@H](CS)C(=O)N[C@@H](CC(C)C)C(=O)O			0.4 h	
CC[C@H](C)[C@H](NC(=O)[C@H](CC(C)C)NC(=O)[C@@H]1CCCN1C(=O)[C@H](Cc1ccccc1)NC(=O)[C@H](CC(C)C)NC(=O)[C@@H](N)CCC(=O)O)C(=O)N[C@@H](Cc1ccccc1)C(=O)N1CCC[C@H]1C(=O)N[C@@H](C)C(=O)O			5.1 h	

Continued, in another order:

IC50 (HLA class I molecule; allele A02.01)	Stability (T1/2 (h)) (HLA Class I molecules; allele A02.01, 37° C.)	Stability (T1/2 (h)) (HLA Class I molecules; [1])	Compound	other results
45 nM	2.5 h		LLQEFDVQEA	
3 nM	6.8 h		FSGEYIPTV	
131 nM	1.9 h		VLHESNSPYI	
125 nM		0.5 h	RVAKIADFGM	Stability (T1/2 (h)) (HLA Class I molecules; allele B07.02, pMHC-I dissociation at 37° C.): 0.2 h
779 nM		1.3 h	GVYTFLPST	
1040 nM		0.6 h	CC(C)C[C@H](NC(=O)[C@H](CC(C)C)NC(=O)[C@H](CC(C)C)NC(=O)CNC(=O)[C@H](Cc1ccc(O)cc1)NC(=O)[C@H](CC(C)C)NC(=O)[C@@H]1CCCN1C(=O)[C@@H](NC(=O)[C@@H](N)C(C)C)C(C)C)C(=O)O	
72 nM		11 h	VLLSVHLIV	
40 nM	0.4 h		WMTETLFDIV	IC50 (HLA class I molecule; allele A01.01): 14400 nM
1030 nM	0.4 h		MNWRPILTII	
	1.2 h		IIIEYCFYG	
	0.4 h		CC[C@H](C)[C@H](NC(=O)[C@@H]1CCCN1C(=O)[C@H](CCCNC(=N)N)NC(=O)[C@H](Cc1c[nH]c2ccccc12)NC(=O)[C@H](CC(N)=O)NC(=O)[C@H](CCSC)NC(=O)CNC(=O)CNC(=O)[C@H](CCSC)NC(=O)[C@@H](N)CS)C(=O)O	
		0.6 h	CC(C)C[C@H](NC(=O)[C@H](Cc1c[nH]cn1)NC(=O)[C@H](CCC(=O)O)NC(=O)[C@H](Cc1ccccc1)NC(=O)[C@H](CCCCN)NC(=O)[C@H](CC(=O)O)NC(=O)[C@H](CCC(N)=O)NC(=O)[C@H](CC(C)C)NC(=O)[C@@H](N)CCC(N)=O)C(=O)O	
		0.2 h	CC[C@H](C)[C@H](N)C(=O)N[C@@H](CCC(N)=O)C(=O)N[C@@H](CC(C)C)C(=O)N[C@@H](CCC(N)=O)C(=O)N[C@@H](CC(=O)O)C(=O)N[C@@H](CCCCN)C(=O)N[C@@H](Cc1ccccc1)C(=O)N[C@@H](CCC(=O)O)C(=O)N[C@@H](Cc1c[nH]cn1)C(=O)N[C@@H](CC(C)C)C(=O)O	
	0.4 h		CC[C@H](C)[C@H](NC(=O)[C@@H](NC(=O)[C@H](CC(C)C)NC(=O)[C@@H](NC(=O)[C@@H]1CCCN1C(=O)[C@H](CCCNC(=N)N)NC(=O)[C@H](CCC(N)=O)NC(=O)[C@H](CC(N)=O)NC(=O)[C@H](CCSC)NC(=O)CN)[C@@H](C)CC)[C@@H](C)O)C(=O)O	
		0.5 h	CC[C@H](C)[C@H](N)C(=O)N[C@@H](CCSC)C(=O)N[C@@H](CCC(N)=O)C(=O)N[C@@H](CC(C)C)C(=O)N[C@@H](CCSC)C(=O)N1CCC[C@H]1C(=O)N[C@@H](Cc1ccccc1)C(=O)NCC(=O)N[C@@H](CS)C(=O)N[C@@H](CC(C)C)C(=O)O	
	2.5 h		CSCC[C@H](NC(=O)[C@@H](NC(=O)[C@H](Cc1ccc(O)cc1)NC(=O)[C@H](C)NC(=O)[C@H](CCSC)NC(=O)[C@@H](NC(=O)[C@@H](N)Cc1ccc(O)cc1)C(C)C)C(C)C)C(=O)N[C@@H](C)C(=O)NCC(=O)O	Stability (T1/2 (h)) (HLA Class I molecules; allele B08.01, 37° C.): 1.2 h
